Data set [1] deals with Humulin® N (U40). In words: Modified 10X Glycerin Stress Test (Mod.10X-GST): HMWP growth by size exclusion HPLC. In kind it is physicochemical, human. How it is done:
One milliliter of Humulin® N (U40, Eli Lilly & Co., Indianapolis IN, USA) is spiked with about 160 mg (about 128 µl) of glycerin to be tested. This glycerin level is about ten times the normal level found in commercial products. Another milliliter of Humulin® N U40 is spiked with 128 µL of water. Both samples are stored at 30°C for 7 days. The high molecular weight protein (HMWP) level of the two samples is then measured by size exclusion HPLC chromatography under denaturing conditions [e.g., Waters column labeled "Protein-Pak 125 insulin assay certified", Waters Corporation (Milford, MA, USA) part number 20574; mobile phase 65 parts of a 1 mg/mL L-arginine solution, 20 parts of acetonitrile and 15 parts of glacial acetic acid]. The test samples are solubilized by acidification with a small volume of 9.6 N HCl prior to analysis.
The HMWP growth in the sample is calculated as the HMWP level in the 30°C test sample minus the HMWP level in the water spiked control. Percent growth is reported per 7 day period.

The test system of data set [2] is Humulin® R (U40). In words: 10X Glycerin Stress Test (10X-GST): HMWP growth by size exclusion HPLC. To be noted: Humulin® R with 160 mg/mL glycerin, 7 days at 30°C minus frozen control. The format is physicochemical, human. As for the experimental part: The 10X Glycerin Stress Test (10X-GST) measures the formation of covalent dimers and polymers in an insulin composition. Glycerin to be tested is added to Humulin® R (U40, Eli Lilly & Co., Indianapolis IN, USA) to a final concentration of 160 mg/mL of glycerin, i.e., ten times the level of glycerin normally used in this formulation. One aliquot of the resulting formulation is incubated at 30°C for 7 days, while a second aliquot is stored frozen over the same time period. Then, the high molecular weight protein (HMWP) level of the two aliquots is measured by size exclusion HPLC chromatography under denaturing conditions (e.g., Zorbax GF 250 Special column; mobile phase 65 parts of 0.1M ammonium phosphate buffer at pH 7.5 and 35 parts acetonitrile; detection at 214 nm). The growth of HMWP in the test formulation is the concentration of HMWP in the 30°C sample minus the concentration of HMWP in the frozen control.

The mark [3] stands for this setting: Humulin® N spiked with about 160 mg glycerin per mL, 7 days at 30°C minus water spiked control, Table 5.
[4] abbreviates: Humulin® N with treated or untreated glycerin, 7 days at 30°C, Table 7.

Here are results for 7 compounds from patent publication EP1523993A1, “Polypeptide compositions with improved stability” (Eli Lilly & Company, priority 1999, dated 2001).

Each structure is given as a SMILES string.

In the case of `OCC(O)CO` [Sample 7, glycerin], the “Mod.10X-GST Test” value in data set [1] (setting [3]) was found to be 0.09%; in data set [1] (setting [4]) it was 3.65%. Also, the “10X-GST Test” value in data set [2] was 0.22.

As for `OCC(O)CO` [Sample 5, glycerin], the “Mod.10X-GST Test” value in data set [1] (setting [4]) was -0.27%.

On to `OCC(O)CO` [Sample 8, glycerin], for which, in data set [1] (setting [3]), the “Mod.10X-GST Test” value was determined as 0.17%. Besides, the “10X-GST Test” value in data set [2] was 0.01.

`OCC(O)CO` [Sample 2, glycerin]: the “Mod.10X-GST Test” value in data set [1] (setting [4]) amounted to 1.58%.

As for `OCC(O)CO` [Sample 1, glycerin], the “Mod.10X-GST Test” value in data set [1] (setting [4]) amounted to 1.84%.

`OCC(O)CO` [Sample 6, glycerin]: the “Mod.10X-GST Test” value is 0.13% in data set [1] (setting [3]) and 4.68% in data set [1] (setting [4]). Further, the “10X-GST Test” value in data set [2] amounted to 0.13.

In the case of `OCC(O)CO` [Sample 10, glycerin], the “Mod.10X-GST Test” value in data set [1] (setting [4]) was -0.03%.
